Data published in patent publication US8937050B2, “Methods and compositions for treatment of autism” (The Johns Hopkins University, priority 2011, dated 2015).
“Also recorded” adds a separate entry of the source.

Assays:
[1] = system: Alzheimer's disease; details: Park et al., 2009, Ricobaraza et al.; cited from earlier work
[2] = system: K562 cells; assay: HbF-producing cell production (DAF staining); assay type: cell-based, human; details: K562 cells, 1.2 mM SB or 100 μM HU; FIG. 1D
Procedure: Fibroblasts (70-95% confluent) were treated with 5 mM 4PBA (1 mM for JNK inhibition studies), 600 μM HU, 200 nM TSA, or 5 μM SFN unless otherwise specified.
K562 cells were suspended in 1.1 mL media and 240 μL of DAF [working solution 50 μL 2,7diaminofluorene (DAF) stock (50 μg DAF in 5 mL 90% glacial acetic acid), 50 μL 30% hydrogen peroxide, and 2.5 ml 200 mM Tris-HCl, pH 7.0]. DAF stained hemoglobinized cells were scored using a hemocytometer.
K562 cells were treated with SB and HU for four to ten days. […] (n≧3 unless otherwise noted).
To determine whether the induction of mitochondrial biogenesis by SB or HU treatment was necessary for the induction of HbF-producing cell production, K562 cells were treated with SB or HU in the presence or absence of AA. […] After two to four days of drug treatment with or without AA, mitochondrial mass was measured using Mitotracker, a mitochondrial stain. Fold change (drug treated/control) is shown. […] After four days of drug treatment with or without AA, cells were stained with DAF. The relative number of cells producing HbF (DAF stained cells) were plotted. […] After eight to ten days of drug treatment, peroxisome proliferation was measured using an antibody against the peroxisomal membrane protein, PEX14 and a FITC-labeled secondary antibody. Fold change (drug treated/control) is shown. In FIGS. 1C, 1D, and 1E, the * represents a statistically significant increase in a measurement between drug treated and control samples or a statistically significant decrease in a measurement between drug treated and drug treated samples in the presence of AA (p≦0.05) (Bars=SEM). This finding indicates dependence of the beneficial effect (i.e., elevated HbF levels) on induced mitochondrial biogenesis. Thus, the therapeutic effects observed in SCD may involve the pharmacological induction of mitochondrial biogenesis by SB or HU.
K562 cells were treated for four days with HU in the presence or absence of SP600125 or PBS as a control (CON). […]

[3] = system: autism; assay: Placebo-controlled study of HU in male adolescents and adults with autism; assay type: in vivo, human; details: HU at low doses
Procedure: Administration of hydroxyurea (HU) in adolescents and adults with autism is evaluated in a study designed to ensure safety and obtain efficacy data. HU is chosen based on its effects on the stress proteome in vitro and based on clinical observations of improvements (e.g., social responsiveness) in persons with autism during fever. (Curran et al., 2007).
The hybrid design of the study incorporates double masking, placebo control, and randomization to enhance the robustness of early outcome data. […]
Forty-five male adolescents (13-18 years) and adults (19-30 years) are randomly assigned to receive either HU (n=30, at 2 month escalating intervals: 10, 15 and 20 mg/kg/day) or placebo (n=15). Quantitative autism traits are assessed using the ADI-R, Social Responsiveness Scale (child and adult forms), Clinical Global Impression Scale (CGI) and Autism Behavior Checklist (ABC). […]
The effect of HU in autism is evaluated to ensure safety and efficacy (Piantadosi et al., 2005). […]
Male adolescent (n=15, ages 13-18 years) and adults (n=30, ages 19-30) are randomly assigned to receive either HU (at 2 month escalating intervals: […]) or placebo. Quantitative autism traits are assessed using the ADI-R, Social Responsiveness Scale (child and adult forms) (Constantino et al., 2005), Clinical Global Impressions Scale (CGI), and Autism Behavior Checklist (ABC). […]

SMILES	Therapeutic Effect [1]	number of HbF-producing cells [2]	clinical function in adolescents and adults with well characterized autism [3]
C[S@@+]([O-])CCCCN=C=S [SFN, 1-isothiocyanato-4R-(methylsulfinyl)butane]	reduce β-amyloid toxicity; also recorded: prevent neuronal cell death		
NC(=O)NO [HU, hydroxyurea]		significantly increased	improved clinical function
